Experiments:
[1] = target: T1, constitutive RAS GTPase activity in H358 cells (Homo sapiens, UniProt P01116, G12C); assay: H358 Cellular Active RAS GTPase ELISA; assay type: cell-based; conditions: H358 human lung cancer cells, serum free media, 2 hours incubation; read-out: relative IC50, inhibition of constitutive RAS GTPase activity
T1 construct: host or cells: H358 human lung cancer cells
Source text: The purpose of this assay is to measure the ability of test compounds to inhibit constitutive RAS GTPase activity in human lung cancer cells H358 (ATCC CRL-5807). The RAS GTPase ELISA kit (Active Motif Cat #52097) contains a 96-well plate pre-coated with glutathione in order to capture a kit-supplied GST-Raf-RBD protein. Activated RAS (GTP-bound) in cell extracts specifically bind to the Raf-RBD. Bound RAS is detected with a primary antibody that recognizes human KRas. A secondary antibody conjugated with HRP recognizes the primary antibody and a development solution provides a chemiluminescent readout.
H358 cells are plated at 80,000 cells/well in 90 μL serum free media (RPMI 1640, GIBCO) and incubated overnight at 37° C./5% CO2. The next morning, 10 μL of serially-diluted (3-fold) test compounds (500 μM top concentration) and 10 μL of controls (Maximum signal wells: 5% DMSO and Minimum signal wells: 500 μM 1-[4-[6-chloro-8-fluoro-7-(3-hydroxy-1-naphthyl)quinazolin-4-yl]piperazin-1-yl]prop-2-en-1-one, WO2015054572 as an inhibitor) are added to the cell plate and incubated for 2 hours at 37° C./5% CO2. Complete Lysis/Binding Buffer is prepared containing Protease Inhibitor cocktail and GST-Raf-RBD and stored on ice. […] The assay plate is then read on an EnVision™ Plate Reader (Perkin Elmer) using a luminescence program. […]

KRas G12C = KRas G12C (Homo sapiens, UniProt P01116, G12C); assay: KRas G12C Probe Occupancy TR-FRET Assay; conditions: His-tagged KRas G12C; inhibitor incubated 5 or 60 minutes (which one applies is not stated); read-out: relative IC50, competition with KRas Probe for binding to and covalently modifying KRas G12C
Source text: The purpose of this assay is to measure the ability of an inhibitor to compete with a probe for binding to and covalently modifying KRas G12C at codon 12. The signal is generated by the time-resolved transfer of fluorescence between europium on an antibody bound to KRas G12C Europium-labeled Anti-Histidine Tag Antibody LanthaScreen (the Eu Anti-His antibody) and fluorescent Tracer 647 (Alexa Fluor™) bound to KRas G12C through streptavidin and a biotinylated inhibitor (the “KRas Probe”, see Preparation 59).
Inhibitors are tested in dose response format from 10 mM stocks in 100% DMSO. The Labycyte Echo® 555 is used to dilute and transfer 100 nL per well containing a 10 point, 2.8-fold serial dilution to an assay plate. Two copies of the assay plate are prepared to measure the potency after 5 and 60 minutes incubation of the inhibitor with KRas G12C. His-tagged KRas G12C (20 nM) is added to the plates in assay buffer (20 mM Tris-HCl, pH 7.5, 0.01% TX-100, and 1 mM DTT). After 5 or 60 minutes incubation, 1 μM KRas Probe is added and allowed to covalently modify free KRas G12C for 1 hour. […] After 30 minutes, the fluorescent signal is read on an Envision™ Plate Reader (excitation at 340 nm, tracer emission (em) at […], and antibody emission at 615 nm). […]

[2] = test system: phosphorylation of p-ERK1/2 in H358 cells; assay: H358 Cellular Phospho-ERK AlphaLISA; assay type: cell-based; conditions: NCI-H358; H358 human lung cancer cells, 2 hours incubation; read-out: relative IC50, inhibition of phosphorylation of p-ERK1/2
Source text: The purpose of this assay is to measure the ability of test compounds to inhibit the phosphorylation of p-ERK1/2, a downstream effector of KRas in human lung cancer cells H358 (ATCC CRL-5807). Briefly, the AlphaLISA® SureFire® Ultra™ p-ERK 1/2 (Thr202/Tyr204) assay is a sandwich immunoassay for quantitative detection of phospho-ERK 1/2 (phosphorylated on Thr202/Tyr204 in ERK1, or Thr185/Tyr187 in ERK2) in cellular lysates using Alpha Technology (Perkin Elmer Cat #ALSU-PERK-A50K).
H358 cells are plated at 40K cells per well in 100 μL media (RPMI 1640, GIBCO Cat #22400-071) containing 10% FBS (GIBCO Cat #: 10082-147) in a 96 well plate (Costar #3596) and are incubated overnight in humid trays at 37° C., 5% CO2. […] The assay plate is then read on an EnVision™ Plate Reader (Perkin Elmer) using a luminescence program. […]

T1 sequence (P01116 1-188 isoform P01116-2 G12C): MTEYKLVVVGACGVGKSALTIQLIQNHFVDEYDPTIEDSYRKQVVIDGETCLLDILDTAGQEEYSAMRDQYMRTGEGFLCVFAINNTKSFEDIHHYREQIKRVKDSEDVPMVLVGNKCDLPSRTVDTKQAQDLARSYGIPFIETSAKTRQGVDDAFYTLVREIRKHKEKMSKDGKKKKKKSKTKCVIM
Chain of KRas G12C (P01116 1-188 isoform P01116-2 G12C): as above

- IC50 [1]: 326 nM
- IC50 (KRas G12C): 34 nM
- IC50 [2]: 89 nM
Structure (SMILES): C=CC(=O)N1CCN2C(=O)c3cc(Cl)c(-c4ccc(F)c5sccc45)c(Cl)c3OCC[C@H]2C1 (single isomer, unassigned) [Example 2]

From patent US12590105B2, “KRas G12C inhibitors” (Eli Lilly and Company, priority 2020, dated 2026)
